{"source": "paper PMC2629123", "about": "“Trypanosoma cruzi CYP51 Inhibitor Derived from a Mycobacterium tuberculosis Screen Hit” (PLoS Neglected Tropical Diseases, 2009)", "key": {"CYP51Tc": {"target": "T1, CYP51Tc (Trypanosoma cruzi, UniProt Q7Z1V1)", "T1 construct": "His6 (C); made in house; host or cells: Escherichia coli HMS174(DE3)", "T1 sequence (Q7Z1V1 21-481, looked up, natural form)": "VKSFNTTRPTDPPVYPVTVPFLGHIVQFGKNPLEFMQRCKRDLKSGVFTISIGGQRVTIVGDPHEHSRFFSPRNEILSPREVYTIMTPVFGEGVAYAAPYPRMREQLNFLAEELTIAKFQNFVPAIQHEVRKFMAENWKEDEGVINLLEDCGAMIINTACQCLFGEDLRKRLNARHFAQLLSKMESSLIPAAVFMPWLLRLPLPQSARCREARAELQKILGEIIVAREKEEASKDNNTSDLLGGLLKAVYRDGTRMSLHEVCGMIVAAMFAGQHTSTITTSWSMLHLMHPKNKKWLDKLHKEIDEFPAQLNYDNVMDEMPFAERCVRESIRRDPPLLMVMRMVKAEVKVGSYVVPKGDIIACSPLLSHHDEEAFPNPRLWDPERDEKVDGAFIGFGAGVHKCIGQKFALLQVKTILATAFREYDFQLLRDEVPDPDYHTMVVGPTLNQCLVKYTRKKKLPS", "experiment": "biochemical", "format": "binding"}, "CYP51Tb": {"target": "T2, CYP51Tb (Trypanosoma brucei brucei, UniProt Q385E8, L2A)", "T2 construct": "His8 (C); made in house; host or cells: E. coli HMS174(DE3) co-transformed with pGro7 (GroES/GroEL)", "T2 sequence (Q385E8 whole entry L2A)": "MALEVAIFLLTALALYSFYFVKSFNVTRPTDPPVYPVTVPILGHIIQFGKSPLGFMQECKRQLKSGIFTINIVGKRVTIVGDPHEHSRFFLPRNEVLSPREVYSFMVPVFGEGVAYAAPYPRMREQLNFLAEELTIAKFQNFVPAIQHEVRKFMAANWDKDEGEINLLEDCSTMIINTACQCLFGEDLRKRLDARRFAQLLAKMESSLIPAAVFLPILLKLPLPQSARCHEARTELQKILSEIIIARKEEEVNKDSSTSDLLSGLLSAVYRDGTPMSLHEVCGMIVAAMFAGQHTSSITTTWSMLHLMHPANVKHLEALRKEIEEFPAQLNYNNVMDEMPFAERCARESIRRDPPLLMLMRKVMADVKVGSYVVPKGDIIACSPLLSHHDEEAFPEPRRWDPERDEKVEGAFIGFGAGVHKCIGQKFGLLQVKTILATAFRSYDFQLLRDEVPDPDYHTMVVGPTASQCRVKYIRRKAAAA", "experiment": "biochemical", "format": "binding", "details": "spectral titration, room temperature, pH 7.5"}, "[1]": {"test_system": "T. cruzi Y strain trypomastigotes", "experiment": "T. cruzi assay: infection of J774 mouse macrophages, long-term treatment and cure", "format": "cell-based, Trypanosoma cruzi", "details": "10 µM, infected J774 macrophages, treatment up to 27 days then 13–15 days without inhibitor", "experimental": "Irradiated (1000 rads) J774 mouse macrophages were plated in 12-well tissue culture plates 24 h prior to infection with 10^5 T. cruzi Y strain trypomastigotes for 2 h at 37°C. […] Untreated controls, controls treated with the inhibitor K11777 (10 µM),[31], and uninfected macrophage controls were also included. All cultures were in triplicate and medium was replaced every 48 h. Treatment with CYP51 inhibitors continued for up to 27 days. Subsequently, treated cultures were maintained without inhibitor for an additional 13–15 days to confirm inhibitor effectiveness and cure of infected cells. Cultures were monitored daily by contrast phase microscopy to determine presence of T. cruzi infected cells and free infectious trypomastigotes (Table 2)."}, "[2]": {"test_system": "T. cruzi intracellular amastigotes", "experiment": "IC50: T. cruzi intracellular amastigotes in J774 macrophages, parasites/cell", "format": "cell-based, Trypanosoma cruzi", "details": "52 h; for mean number of parasites/cell: untreated 3.57±0.5 P/cell", "experimental": "To determine IC50, mouse J774 macrophages were irradiated (1000 rads) to deter growth and plated onto 12-well tissue culture plates. Cells were infected with 10^5 tissue culture trypomastigotes of the Y strain of T. cruzi for 2 h at 37°C, as described above. […] All treatments were performed in triplicate to ensure statistical validity. Cultures were then fixed in 4% paraformaldehyde in PBS for 2 h at room temperature and stained with DAPI (10 nM) in PBS. One hundred cells and their intracellular parasites were quantified as previously described to estimate the mean number of parasites/cell. Mean P/cell data were plotted against compound concentration to estimate the IC50."}, "T. brucei": {"test_system": "T. brucei", "experiment": "T. brucei assay, viability by ATP-bioluminescence (CellTiter-Glo)", "format": "cell-based, Trypanosoma brucei", "details": "highest tested concentration 10 µM, 48 h", "experimental": "Trypanosomes were grown in complete HMI-9 medium containing 10% FBS, 10% Serum Plus medium (Sigma Inc. St. Louis Mo. USA) and 1× penicillin/streptomycin. Trypanosomes were diluted to 1.0×10^5/ml in complete HMI-9 medium. Diluted trypanosomes were aliquoted in Greiner sterile 96-well flat white opaque culture plates using a WellMate cell dispenser (Matrix Tech., Hudson, NH, USA). Compounds 8 and 10 were serially diluted in Me2SO. Trypanosomes were incubated with the compounds for 48 h at 37°C with 5% CO2 before monitoring viability. Trypanosomes were then lysed in the wells by adding 50 µl of CellTiter-GloTM (Promega Inc., Madison, WI, USA). Lysed trypanosomes were placed on an orbital shaker at room temperature for 2 min. The resulting ATP-bioluminescence of the trypanosomes in the 96-well plates was measured at room temperature using an Analyst HT plate reader (Molecular Devices, Sunnyvale, CA, USA)."}, "[3]": {"details": "spectral titration, room temperature, pH 7.5, read-out: KD, μM CYP51Tc"}}, "note": "Where two headings read alike, the source gives them in different places."}
{"smiles": "Cc1ccc(S(=O)(=O)NCCCOC(=O)Nc2ccncc2)cc1", "note": "[Compound 8, 3-{[(4-methylphenyl)sulfonyl]amino}propylpyridin-4-ylcarbamate]", "values": [{"measurement": "Kd", "setting": "CYP51Tc; KD (affinity toward CYP51Tc), spectral assays", "value": 0.16, "unit": "µM"}, {"measurement": "Kd", "setting": "CYP51Tc; KD, μM CYP51Tc, spectral titration, room temperature, pH 7.5", "value": "0.16 ± 0.03", "unit": "µM"}, {"measurement": "KD, μM CYP51Tb", "setting": "CYP51Tb", "value": "no binding"}, {"measurement": "Host cell survival", "setting": "[1]", "value": 5, "unit": "days"}, {"measurement": "T. cruzi development", "setting": "[1]", "value": 5, "unit": "days"}, {"measurement": "mean number of parasites/cell", "setting": "[2]; 10 µM", "value": "1.22±0.1", "unit": "P/cell"}, {"measurement": "inhibitory effects against cultured T. brucei", "setting": "T. brucei", "value": "neither compound 8 nor 10 had any inhibitory effects"}]}
{"smiles": "CSCC[C@H](NC(=O)[C@H]1CC[C@@H](C)CC1)C(=O)Nc1ccncc1", "note": "[Compound 9, cis-4-methyl-N-[(1S)-3-(methylsulfanyl)-1-(pyridin-4-ylcarbamoyl)propyl]cyclohexanecarboxamide]", "values": [{"measurement": "Kd", "setting": "CYP51Tb", "value": "6.5 ± 0.6", "unit": "µM"}]}
{"smiles": "CC1CCC(C(=O)NC(Cc2c[nH]c3ccccc23)C(=O)Nc2ccncc2)CC1", "note": "(centres unmarked) [Compound 10]", "values": [{"measurement": "KD, μM CYP51Tb", "setting": "CYP51Tb", "value": "no binding"}, {"measurement": "Host cell survival", "setting": "[1]", "value": 40, "unit": "days"}, {"measurement": "T. cruzi development", "setting": "[1]", "value": "No"}, {"measurement": "T. cruzi development", "setting": "[1]; listed as compound 10", "value": "No parasites survived"}, {"measurement": "mean number of parasites/cell", "setting": "[2]; 10 µM", "value": "0.25±0.01", "unit": "P/cell"}, {"measurement": "inhibition at 10 µM", "setting": "[2]; Trypanosoma cruzi, 10 µM, read-out: growth inhibition", "value": 100, "unit": "%"}, {"measurement": "IC50", "setting": "[2]; Trypanosoma cruzi, Y strain, read-out: IC50 for T. cruzi intracellular growth inhibition", "value": "~1", "unit": "nM"}, {"measurement": "inhibitory effects against cultured T. brucei", "setting": "T. brucei", "value": "neither compound 8 nor 10 had any inhibitory effects"}, {"measurement": "inhibitory effects against cultured T. brucei", "setting": "T. brucei; listed as compound 10", "value": "inactive"}]}
{"smiles": "Cn1c(=O)c2c(ncn2CC(=O)Nc2ccncc2)n(C)c1=O", "note": "[Compound 7]", "values": [{"measurement": "Kd", "setting": "CYP51Tc; [3]", "value": "20.7 ± 0.8", "unit": "µM"}, {"measurement": "Kd", "setting": "CYP51Tb", "value": "> 100", "unit": "µM"}]}
{"smiles": "CCC(C(=O)Nc1ccncc1)c1ccccc1", "note": "(stereo not drawn) [EBPA, α-ethyl-N-4-pyridinyl-benzeneacetamide, reference compound]", "values": [{"measurement": "Kd", "setting": "CYP51Tc; [3]", "value": "0.48 ± 0.08", "unit": "µM"}]}
